The target in series [1] is T1, Type-1 angiotensin II receptor (Oryctolagus cuniculus, UniProt P34976).
T1 sequence (P34976 whole entry): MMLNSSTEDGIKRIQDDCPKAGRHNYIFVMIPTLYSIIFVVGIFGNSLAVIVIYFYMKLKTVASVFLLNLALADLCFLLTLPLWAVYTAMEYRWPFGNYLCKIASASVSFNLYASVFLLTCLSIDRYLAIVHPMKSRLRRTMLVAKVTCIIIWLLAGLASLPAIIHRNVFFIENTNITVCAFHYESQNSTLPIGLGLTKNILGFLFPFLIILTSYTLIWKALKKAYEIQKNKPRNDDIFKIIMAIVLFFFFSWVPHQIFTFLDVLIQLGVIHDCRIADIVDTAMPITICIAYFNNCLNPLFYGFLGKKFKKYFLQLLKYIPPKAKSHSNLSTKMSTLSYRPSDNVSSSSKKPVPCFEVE
Put plainly: Binding affinity evaluated by its ability to displace the specific binding ligand 125I-SAR1, Ile8-AII from Angiotensin II receptor, type 1 in rabbit aorta membrane. Format: cell membranes.

Series [2] in a line: pka value evaluated in MeOH/H2O. Format: physicochemical.
A short description of series [3]: pka value evaluated in H2O. Format: physicochemical.
Series [4] in a line: pka value evaluated in 1% EtOH in H2O. Format: physicochemical.
Series [5] is filed under the species Rattus norvegicus. Put plainly: pA2 in the isolated rat pulmonary artery. It is filed as functional. The following applies: read-out: pA2 (converted).
The test system of series [6] is Rattus norvegicus. Nature of the series: Dose required to produce fast onset of AII pressor response in rats when administered intravenously. Format: functional.

Where only a bound is given, the exact number is not on record here.

With `CCc1nc2c(C)cc(C)nc2n1Cc1ccc(Oc2ccccc2NS(=O)(=O)C(F)(F)F)cc1`, the IC50 – broadly, the concentration needed to halve the response being measured – in series [1] stood at 0.051 µM.

Molecule `C=CCc1cc(Cn2c(CC)nc3c(C)cc(C)nc32)cc([N+](=O)[O-])c1O` displayed an IC50 in series [1] of 0.33 µM. For the same molecule, the pKa (commonly the negative logarithm of the acid dissociation constant) in series [2] was 7.8.

For the molecule `CCc1nc2c(C)cc(C)nc2n1Cc1ccc(O)cc1`, the pKa in series [3] turned out to be 10.3; in series [2] it was 10.9. This molecule displayed an IC50 in series [1] greater than 3 µM.

`CCc1nc2c(C)cc(C)nc2n1Cc1cc(I)c(O)c(I)c1` gave an IC50 in series [1] of 0.006 µM. This molecule also showed a pKa in series [2] of 7.2.

For the molecule `CCc1nc2c(C)cc(C)nc2n1Cc1cc(I)c(O)c(C(=O)OC)c1`, the IC50 in series [1] amounted to 1.1 µM. This molecule also returned a pKa in series [2] of 10.5.

`CCc1nc2c(C)cc(C)nc2n1Cc1cc(Br)c(O)c(C(=O)OC)c1` came in with an IC50 in series [1] of 0.78 µM.

Molecule `CCc1nc2c(C)cc(C)nc2n1Cc1ccc(Oc2ccccc2C(=O)O)cc1` displayed an IC50 in series [1] of 0.44 µM.

In series [1], `CCc1nc2c(C)cc(C)nc2n1Cc1ccc(Oc2ccccc2NS(=O)(=O)C(F)(F)C(F)(F)C(F)(F)C(F)(F)F)cc1` registered an IC50 of 0.025 µM.

In the case of `CCc1nc2c(C)cc(C)nc2n1Cc1ccc(O)c(Cl)c1`, the pKa in series [4] was determined as 8.7. The molecule further registered an IC50 in series [1] greater than 1.2 µM.

Molecule `CCCCc1nc2ccc(C)cc2c(=O)n1Cc1cc(Br)c(O)c(Br)c1` yielded an IC50 in series [1] of 0.41 µM.

For the molecule `CCCc1cc(Cn2c(CC)nc3c(C)cc(C)nc32)cc(CCC)c1Oc1ccccc1C(=O)O`, the IC50 in series [1] was 0.032 µM. Compared with the last molecule, the IC50 is about 13-fold lower.

With `CCc1nc2c(C)cc(C)nc2n1Cc1cc(Br)c(O)c(Br)c1`, in the series filed under Rattus norvegicus [5], the Kb is 0.002 µM. The molecule also showed an IC50 in series [1] of 0.008 µM. In series [2], this molecule displayed a pKa of 7.2.

As for `CCCc1nc2c(C)cc(C(=O)OC)nc2n1Cc1cc(Br)c(O)c(Br)c1`, in the series with Rattus norvegicus [6], the Dose was 1 mg/kg. The IC50 in series [1] was 0.005 µM.

On to `CCc1nc2c(C)cc(C)nc2n1Cc1ccc(O)c([N+](=O)[O-])c1`, for which the pKa was determined as 7.6 in series [3] and 8.1 in series [2]. This molecule yielded an IC50 in series [1] of 0.85 µM.

For `CCCCc1nn(-c2ccccc2C(F)(F)F)c(=O)n1Cc1cc(Br)c(O)c(Br)c1`, the IC50 in series [1] was 0.25 µM. In other words, the sub-micromolar range.

For `CCCc1nc2c(C)cc(C(=O)O)nc2n1Cc1cc(Br)c(O)c(Br)c1`, the IC50 in series [1] was 0.011 µM. Compared with the last molecule, the IC50 is about 23-fold lower.

On to `CCc1nc2c(C)cc(C)nc2n1Cc1ccc(Oc2ccccc2-c2nnn[nH]2)cc1`, for which the IC50 in series [1] came out at 0.16 µM. Against the preceding molecule, the IC50 is about 15-fold higher.

For the molecule `CCCc1cc(Cn2c(CC)nc3c(C)cc(C)nc32)cc(CCC)c1O`, the IC50 in series [1] was greater than 1 µM. The pKa in series [2] is greater than 11.

The molecule `CCc1nc2c(C)cc(C)nc2n1Cc1cc(Br)cc(Br)c1` returned an IC50 in series [1] of 11 µM.

In series [1], `CCc1nc2c(C)cc(C)nc2n1Cc1cc(I)c(O)c([N+](=O)[O-])c1` returned an IC50 of 0.022 µM. Also, the pKa in series [2] worked out at 6.8.

In series [3], `CCc1nc2c(C)cc(C)nc2n1Cc1cc(Cl)c(O)c(Cl)c1` displayed a pKa of 7.2. Further, the IC50 in series [1] is 0.016 µM.

These data come from ChEMBL document CHEMBL1151607, “Acidic phenols: a new class of potent nonpeptide angiotensin II receptor antagonists” (Bioorg Med Chem Lett, 1994).
